Measurements as given in BindingDB's records for doi:10.1021/bi00331a002 (University of Minnesota, 1985).

Each compound was assayed against Glutamate receptor ionotropic, NMDA 1 (Rattus norvegicus, UniProt P35439).

Structure (SMILES)	Ki [µM]
N[C@H](CC(=O)O)C(=O)O	> 10
N[C@@H](CCP(=O)(O)O)C(=O)O [2-Amino-4-phosphono-butyric acid]	1.5
N[C@@H](Cn1oc(=O)[nH]c1=O)C(=O)O [2-amino-3-(3,5-dioxo[1,2,4]oxadiazolidin-2-yl)propionic acid]	0.26
CP(=O)(O)CCC(N)C(=O)O (stereo not drawn) [2-amino-4-(methylphosphino) butanoic acid]	3.8
N[C@H](CCCP(=O)(O)O)C(=O)O [CB3371309]	> 10
N[C@H](CCP(=O)(O)O)C(=O)O [D-AP4]	> 10
N[C@@H](CC(=O)O)C(=O)O [L-Aspartic acid, 2]	8
CC(C[C@H](N)C(=O)O)P(=O)(O)O (stereo partly drawn) [gamma-methyl-APB]	8.6
